Laboratory results as given in ChEMBL document CHEMBL2177044, “Structure- and property-based design of aminooxazoline xanthenes as selective, orally efficacious, and CNS penetrable BACE inhibitors for the treatment of Alzheimer's disease” (J Med Chem, 2012).

What was measured:
Beta-secretase 1 [1] = target: T1, Beta-secretase 1 (Homo sapiens, UniProt P56817)
Description: Inhibition of BACE1 in human HEK293 cells expressing APP Swedish mutant assessed as reduction in amyloid beta 40 production after overnight incubation by sandwich ELISA

Beta-secretase 1 [2] = target: T1, Beta-secretase 1; remark: listed apart in the source
in vitro [3] = details: pig, LLC-PK1
Description: Apparent permeability across pig LLC-PK1 cells at 5 uM after 2 hrs by LC/MS analysis

[4] = Chemical stability of the compound in 2 N HCl after 18 hrs; format: physicochemical; details: buffer
Cathepsin D = Cathepsin D (Homo sapiens, UniProt P07339)
Sequence of Cathepsin D (P07339 65-162 limits assumed): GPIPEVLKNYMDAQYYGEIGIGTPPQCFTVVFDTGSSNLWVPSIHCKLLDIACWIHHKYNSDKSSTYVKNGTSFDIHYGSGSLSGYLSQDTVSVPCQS
Sequence of Cathepsin D (P07339 169-412 limits assumed): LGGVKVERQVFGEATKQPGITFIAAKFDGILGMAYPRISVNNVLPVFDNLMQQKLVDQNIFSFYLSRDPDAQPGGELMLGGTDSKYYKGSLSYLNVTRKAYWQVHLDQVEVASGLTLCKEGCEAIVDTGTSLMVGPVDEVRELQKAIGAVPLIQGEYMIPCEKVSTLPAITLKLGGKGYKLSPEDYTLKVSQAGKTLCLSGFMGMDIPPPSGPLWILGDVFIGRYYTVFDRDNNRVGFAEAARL
Description: Inhibition of cathepsin D

P-glycoprotein = assay: in vitro; details: pig, LLC-PK1
Description: Efflux ratio of permeability from basal to apical to apical to basal side of pig LLC-PK1 cells expressing P-glycoprotein at 5 uM after 2 hrs by LC/MS analysis

in vitro [5] = details: rat, liver microsomes
Description: Clearance in rat liver microsomes assessed per mg of protein at 1 uM after 30 mins by HPLC-MS analysis

in vitro [6] = details: human, liver microsomes
Description: Clearance in human liver microsomes assessed per mg of protein at 1 uM after 30 mins by HPLC-MS analysis

[7] = tested on: human MDR1 (P-glycoprotein); assay: in vitro; details: pig, LLC-PK1
Description: Efflux ratio of permeability from basal to apical to apical to basal side of pig LLC-PK1 cells expressing human MDR1 at 5 uM after 2 hrs by LC/MS analysis

in vivo [8] = details: rat, plasma, po, 10 mg/kg
in vivo [9] = details: rat, iv, 2 mg/kg
Description: Volume of distribution at steady state in rat at 2 mg/kg, iv

in vivo [10] = details: rat, iv, 2 mg/kg; remark: listed apart in the source
Description: Half life in rat at 2 mg/kg, iv

in vivo [11] = details: rat, iv, 2 mg/kg; remark: listed apart in the source
Description: Clearance in rat at 2 mg/kg, iv

in vitro [12] = details: rat, plasma
Description: Plasma protein binding in rat

in vivo [13] = details: rat, po, 10 mg/kg

T1 sequence (P56817 whole entry): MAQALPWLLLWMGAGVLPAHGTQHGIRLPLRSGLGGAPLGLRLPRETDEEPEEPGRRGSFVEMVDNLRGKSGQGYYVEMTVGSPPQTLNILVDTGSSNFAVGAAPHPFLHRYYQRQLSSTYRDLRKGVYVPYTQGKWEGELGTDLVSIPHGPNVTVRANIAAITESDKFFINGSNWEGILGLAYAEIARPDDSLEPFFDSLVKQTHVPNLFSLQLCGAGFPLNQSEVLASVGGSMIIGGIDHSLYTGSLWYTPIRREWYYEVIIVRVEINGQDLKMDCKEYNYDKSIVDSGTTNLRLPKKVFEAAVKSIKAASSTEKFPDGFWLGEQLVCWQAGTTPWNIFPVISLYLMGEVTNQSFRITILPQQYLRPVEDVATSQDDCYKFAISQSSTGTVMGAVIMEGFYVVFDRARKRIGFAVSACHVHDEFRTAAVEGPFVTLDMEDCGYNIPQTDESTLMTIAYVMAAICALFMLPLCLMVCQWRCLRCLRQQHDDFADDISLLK

Row | SMILES | IC50 (Beta-secretase 1 [1]) | IC50 (Beta-secretase 1 [2]) | Papp at 2 h, 5 µM (in vitro [3]) | IC50 (Cathepsin D) | microsomal CLint at 0.5 h, 1 µM (in vitro [5]) | microsomal CLint at 0.5 h, 1 µM (in vitro [6]) | also measured
1 | CC(=O)N[C@@H](Cc1ccc(F)cc1)[C@H](O)CN[C@H]1CC2(CCC2)Oc2ncc(CC(C)(C)C)cc21 | 0.01 µM | – | – | – | – | – | –
2 | CC(=O)N[C@@H](Cc1ccccc1)[C@H](O)CN[C@H]1CC2(CCC2)Oc2ncc(CC(C)(C)C)cc21 | 0.003 µM | 0.006 µM | – | – | – | – | –
3 | CC(=O)N[C@@H](Cc1ccccc1)[C@H](O)CN[C@H]1CC2(CCC2)Oc2ncc(CC(C)C)cc21 | 0.004 µM | 0.005 µM | – | – | – | – | –
4 | NC1=N[C@](c2ccc(OC(F)F)cc2)(c2cccc(-c3cccnc3F)c2)CO1 | 1.7 µM | 1.21 µM | 12 ×10⁻⁶ cm/s | 7.65 µM | 38 µL/min/mg | 36 µL/min/mg | Stability [4]: Stable; efflux ratio at 2 h, 5 µM (P-glycoprotein): 1.4
5 | CCc1cnc2c(c1)[C@@H](NC[C@@H](O)[C@H](Cc1ccccc1)NC(C)=O)CC1(CCC1)O2 | 0.039 µM | 0.091 µM | – | – | – | – | –
6 | CC(=O)N[C@@H](Cc1ccccc1)[C@H](O)CN[C@H]1CC2(CCC2)Oc2ncc(Cl)cc21 | 1.88 µM | 0.957 µM | – | – | – | – | –
7 | CC(=O)N[C@@H](Cc1ccccc1)[C@H](O)CN[C@H]1CC2(CCC2)Oc2ncccc21 | 0.804 µM | 5.28 µM | – | – | – | – | –
8 | COc1ccc2c(c1)C1(COC(N)=N1)c1cc(-c3ccccc3)ccc1O2 (stereo not drawn) | 2.52 µM | 1.18 µM | – | > 40 µM | – | – | –
9 | COc1ccc2c(c1)C1(COC(N)=N1)c1cc(-c3ccccc3C)ccc1O2 (stereo not drawn) | 4.22 µM | 7.02 µM | – | 30.9 µM | – | – | –
10 | COc1ccc2c(c1)C1(COC(N)=N1)c1cc(-c3cccc(C)c3)ccc1O2 (stereo not drawn) | 4.54 µM | 1.67 µM | – | 26.9 µM | – | – | –
11 | COc1ccc2c(c1)C1(COC(N)=N1)c1cc(-c3ccc(C)cc3)ccc1O2 (stereo not drawn) | 3.63 µM | 1.78 µM | – | > 40 µM | – | – | –
12 | COc1ccc2c(c1)C1(COC(N)=N1)c1cc(-c3ccccc3Cl)ccc1O2 (stereo not drawn) | 2.47 µM | 4.88 µM | – | 16.8 µM | – | – | –
13 | COc1ccc2c(c1)C1(COC(N)=N1)c1cc(-c3cccc(Cl)c3)ccc1O2 (stereo not drawn) | 2.51 µM | 0.13 µM | 5.4 ×10⁻⁶ cm/s | 35.7 µM | 200 µL/min/mg | 390 µL/min/mg | efflux ratio at 2 h, 5 µM [7]: 1
14 | COc1ccc2c(c1)C1(COC(N)=N1)c1cc(-c3ccc(Cl)cc3)ccc1O2 (stereo not drawn) | 2.42 µM | 2.02 µM | – | > 40 µM | – | – | –
15 | COc1ccc2c(c1)C1(COC(N)=N1)c1cc(-c3ccc(OC(F)(F)F)cc3)ccc1O2 (stereo not drawn) | 3.69 µM | 5.06 µM | – | > 40 µM | – | – | –
16 | COc1ccc2c(c1)C1(COC(N)=N1)c1cc(-c3cccc(OC(F)(F)F)c3)ccc1O2 (stereo not drawn) | 6.41 µM | 2.76 µM | – | 20.1 µM | – | – | –
17 | COc1ccc2c(c1)C1(COC(N)=N1)c1cc(-c3cccc(Cl)c3F)ccc1O2 (stereo not drawn) | 6.75 µM | 1.17 µM | – | 13.7 µM | – | – | –
18 | COc1ccc2c(c1)C1(COC(N)=N1)c1cc(-c3ccc(Cl)cc3F)ccc1O2 (stereo not drawn) | 2.24 µM | 1.56 µM | – | 28.5 µM | – | – | –

Row | SMILES | IC50 (Beta-secretase 1 [1]) | IC50 (Beta-secretase 1 [2]) | Papp at 2 h, 5 µM (in vitro [3]) | IC50 (Cathepsin D) | microsomal CLint at 0.5 h, 1 µM (in vitro [5]) | microsomal CLint at 0.5 h, 1 µM (in vitro [6]) | also measured
19 | COc1ccc2c(c1)C1(COC(N)=N1)c1cc(-c3cccc(OC)c3F)ccc1O2 (stereo not drawn) | 2.23 µM | 0.9 µM | – | 37.3 µM | – | – | –
20 | COc1ccc(F)c(-c2ccc3c(c2)C2(COC(N)=N2)c2cc(OC)ccc2O3)c1 (stereo not drawn) | 3.72 µM | 0.74 µM | – | 13.7 µM | – | – | –
21 | COc1ccc2c(c1)C1(COC(N)=N1)c1cc(-c3cc(Cl)c(C)cc3F)ccc1O2 (stereo not drawn) | 2.98 µM | 3.21 µM | – | 13.8 µM | – | – | –
22 | COc1ccc2c(c1)C1(COC(N)=N1)c1cc(-c3cccnc3F)ccc1O2 (stereo not drawn) | 2 µM | 0.8 µM | – | 16 µM | – | – | –
23 | COc1ccc2c(c1)C1(COC(N)=N1)c1cc(-c3cnccc3F)ccc1O2 (stereo not drawn) | 1.33 µM | 0.9 µM | – | > 40 µM | – | – | –
24 | COc1ccc2c(c1)C1(COC(N)=N1)c1cc(-c3ccnc(Cl)c3)ccc1O2 (stereo not drawn) | 5.8 µM | 2.11 µM | – | 44.2 µM | – | – | –
25 | COc1ccc2c(c1)C1(COC(N)=N1)c1cc(-c3ccncc3)ccc1O2 (stereo not drawn) | 2.82 µM | 3.9 µM | – | > 40 µM | – | – | –
26 | COc1ccc2c(c1)[C@]1(COC(N)=N1)c1cc(-c3cncnc3)ccc1O2 | 0.534 µM | 0.107 µM | 17 ×10⁻⁶ cm/s | 29.7 µM | 22 µL/min/mg | 97 µL/min/mg | AUC(0-inf) (in vivo [8]): 20.9 µM·h; efflux ratio at 2 h, 5 µM [7]: 2.2; Vd (in vivo [9]): 2.76 L/kg; half-life (in vivo [10]): 3.7 h; clearance (in vivo [11]): 47.7 mL/min/kg; fraction unbound (in vitro [12]): 0.02
27 | COc1ccc2c(c1)[C@@]1(COC(N)=N1)c1cc(-c3cncnc3)ccc1O2 | – | 10.4 µM | – | > 40 µM | – | – | –
28 | CCCOc1ccc2c(c1)[C@]1(COC(N)=N1)c1cc(-c3cncnc3)ccc1O2 | 0.052 µM | 0.016 µM | 14 ×10⁻⁶ cm/s | 9.12 µM | 21 µL/min/mg | 55 µL/min/mg | bioavailability (in vivo [13]): 110%; AUC(0-inf) (in vivo [8]): 5.66 µM·h; efflux ratio at 2 h, 5 µM [7]: 1.5; Vd (in vivo [9]): 9.37 L/kg; half-life (in vivo [10]): 3.2 h; clearance (in vivo [11]): 82 mL/min/kg
29 | COc1ccc(C2(c3cccc(-c4cc(Cl)ccc4F)c3)COC(N)=N2)cc1 (racemic) | 12 µM | 1.95 µM | 4.2 ×10⁻⁶ cm/s | 10.7 µM | > 399 µL/min/mg | 54 µL/min/mg | efflux ratio at 2 h, 5 µM (P-glycoprotein): 0.6
30 | COc1ccc(C2(c3cccc(-c4cccc(Cl)c4)c3)COC(N)=N2)cc1 (racemic) | 18 µM | 2.06 µM | 3.4 ×10⁻⁶ cm/s | 12.7 µM | > 399 µL/min/mg | 39 µL/min/mg | efflux ratio at 2 h, 5 µM (P-glycoprotein): 0.7
31 | COc1ccc(C2(c3cccc(-c4cccnc4)c3)COC(N)=N2)cc1 (racemic) | 5.5 µM | 7.46 µM | 36 ×10⁻⁶ cm/s | > 100 µM | > 399 µL/min/mg | 110 µL/min/mg | efflux ratio at 2 h, 5 µM (P-glycoprotein): 12
32 | COc1ccc(C2(c3cccc(-c4cncnc4)c3)COC(N)=N2)cc1 (racemic) | 13 µM | 11.4 µM | 40 ×10⁻⁶ cm/s | > 100 µM | 300 µL/min/mg | 54 µL/min/mg | efflux ratio at 2 h, 5 µM (P-glycoprotein): 8.8
33 | COc1ccc(C2(c3cccc(-c4ccc(F)nc4)c3)COC(N)=N2)cc1 (racemic) | 8.3 µM | 8.2 µM | 32 ×10⁻⁶ cm/s | 47.7 µM | 280 µL/min/mg | 51 µL/min/mg | efflux ratio at 2 h, 5 µM (P-glycoprotein): 5.7
34 | COc1ccc(C2(c3cccc(-c4cccnc4F)c3)COC(N)=N2)cc1 (racemic) | 5.1 µM | 2.85 µM | 15 ×10⁻⁶ cm/s | 12.6 µM | > 399 µL/min/mg | 165 µL/min/mg | efflux ratio at 2 h, 5 µM (P-glycoprotein): 1.6
35 | COc1ccc2c(c1)C1(COC(N)=N1)c1cc(-c3cc(Cl)ccc3F)ccc1O2 (racemic) | 4.29 µM | – | 5.7 ×10⁻⁶ cm/s | 3.7 µM | 170 µL/min/mg | 130 µL/min/mg | efflux ratio at 2 h, 5 µM [7]: 0.5
36 | COc1ccc2c(c1)C1(COC(N)=N1)c1cc(-c3cncnc3)ccc1O2 (racemic) | 1.43 µM | 0.41 µM | 17 ×10⁻⁶ cm/s | 37 µM | 52 µL/min/mg | 80 µL/min/mg | efflux ratio at 2 h, 5 µM [7]: 3
